From patent US20030232999A1, “POLYMETHINE COMPOUND AND NEAR-INFRARED ABSORBING MATERIAL COMPRISING SAME” (priority 2002, published 2003)

Test: Solubility in solvents (stated in words)
Format: physicochemical
Details: statement in words

| SMILES | solubility in solvents |
| --- | --- |
| COCCN1/C(=C\C=C2/CCCC(/C=C/C3=[N+](CCOC)c4ccccc4C3(C)C)=C2Cl)C(C)(C)c2ccccc21 [compound A] | low |
| CCN1/C(=C\C=C2/CCCC(/C=C/C3=[N+](CC)c4ccc(OC)cc4C3(C)C)=C2Cl)C(C)(C)c2cc(OC)ccc21.[I-] [compound B] | low |
